Data as given in ChEMBL document CHEMBL1201862, “PubChem BioAssay data set” (2004).
The source made the active and inactive calls. For most assays here, no stated cut-off is given here; in the data, actives have a measured EC50 and inactives only a lower limit.

What was measured:
[1] = C. albicans growth with fluconazole, confirmation, fluorescence, retest (AID 2467); type: functional, cell-based
[2] = NIH-3T3 fibroblast cytotoxicity, dose response, cytotoxicity control, cell-based, fluorescence, Alamar Blue, secondary assay (AID 2327); type: functional;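 further: NIH-3T3 mouse fibroblasts cultured with fluconazole at 8 µg/mL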
[3] = molecular target: T1, Serine/threonine-protein phosphatase (Candida dubliniensis (strain CD36 / CBS 7987 / NCPF 3949 / NRRLY-17841) (Yeast), UniProt B9W6M3); assay: calcineurin pathway inhibitors in yeast reporter, dose response, S. cerevisiae, CDRE-lacZ, luminescence, secondary (AID 2388); type: functional, cell-based;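 further: yeast reporter cells carrying a calcineurin-responsive lacZ construct stimulated with calcium chloride; luminescent beta-galactosidase reporter signal in whole cells rather than isolated phosphatase activity; potency for inhibition where a drop in reporter signal means calcineurin blockade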
T1 sequence (B9W6M3 whole entry): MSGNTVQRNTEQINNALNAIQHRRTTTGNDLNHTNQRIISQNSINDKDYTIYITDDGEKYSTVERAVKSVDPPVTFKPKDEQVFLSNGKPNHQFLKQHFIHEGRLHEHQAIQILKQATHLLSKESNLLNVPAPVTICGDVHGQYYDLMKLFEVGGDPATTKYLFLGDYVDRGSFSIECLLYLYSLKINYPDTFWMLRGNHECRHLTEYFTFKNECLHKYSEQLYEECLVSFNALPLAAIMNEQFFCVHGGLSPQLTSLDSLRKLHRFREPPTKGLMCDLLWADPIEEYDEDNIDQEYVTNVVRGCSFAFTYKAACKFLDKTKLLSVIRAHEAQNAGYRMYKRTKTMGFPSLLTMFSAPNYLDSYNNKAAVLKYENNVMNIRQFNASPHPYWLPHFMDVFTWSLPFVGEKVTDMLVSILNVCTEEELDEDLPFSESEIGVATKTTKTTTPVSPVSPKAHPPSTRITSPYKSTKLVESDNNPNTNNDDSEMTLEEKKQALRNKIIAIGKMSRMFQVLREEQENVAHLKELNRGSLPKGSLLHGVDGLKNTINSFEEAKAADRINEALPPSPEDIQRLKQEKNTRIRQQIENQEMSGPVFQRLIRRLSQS

[4] = molecular target: ATP-dependent molecular chaperone HSP82 (Candida albicans (strain WO-1) (Yeast), UniProt C4YTQ8); assay: loss of DOC-induced GRE-beta-galactosidase reporter signal, dose response, Hsp90 inhibitor project, S. cerevisiae, luminescence (AID 2400); type: functional, cell-based;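 further: beta-galactosidase luminescence from glucocorticoid response element reporter as proxy for Hsp90 function; inhibitor potency where signal loss means Hsp90 inhibition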
Cytochrome P450 2D6 = Cytochrome P450 2D6 (Homo sapiens, UniProt P10635);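 further: CYP2D6 member of a cytochrome P450 panel assay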
[5] = molecular target: T2, Corticotropin-releasing factor receptor 2/Corticotropin-releasing factor-binding protein (Homo sapiens, UniProt P24387+Q13324); assay: activators of CRF receptor 2 with binding protein – uHTS hits, confirmation (AID 602473); type: functional; conditions: read-out: EC50_Mean
T2 sequence (Q13324 whole entry): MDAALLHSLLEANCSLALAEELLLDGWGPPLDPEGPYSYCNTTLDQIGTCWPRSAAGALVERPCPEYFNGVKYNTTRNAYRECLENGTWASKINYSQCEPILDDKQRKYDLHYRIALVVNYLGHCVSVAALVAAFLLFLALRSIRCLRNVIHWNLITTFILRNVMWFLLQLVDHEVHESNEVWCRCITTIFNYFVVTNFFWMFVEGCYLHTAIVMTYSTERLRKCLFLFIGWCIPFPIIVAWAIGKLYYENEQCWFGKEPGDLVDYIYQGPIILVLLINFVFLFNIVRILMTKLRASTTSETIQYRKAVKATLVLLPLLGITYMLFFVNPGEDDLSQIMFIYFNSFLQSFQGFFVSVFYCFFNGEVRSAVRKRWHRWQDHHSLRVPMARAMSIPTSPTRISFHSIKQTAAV
T2 sequence (P24387 whole entry): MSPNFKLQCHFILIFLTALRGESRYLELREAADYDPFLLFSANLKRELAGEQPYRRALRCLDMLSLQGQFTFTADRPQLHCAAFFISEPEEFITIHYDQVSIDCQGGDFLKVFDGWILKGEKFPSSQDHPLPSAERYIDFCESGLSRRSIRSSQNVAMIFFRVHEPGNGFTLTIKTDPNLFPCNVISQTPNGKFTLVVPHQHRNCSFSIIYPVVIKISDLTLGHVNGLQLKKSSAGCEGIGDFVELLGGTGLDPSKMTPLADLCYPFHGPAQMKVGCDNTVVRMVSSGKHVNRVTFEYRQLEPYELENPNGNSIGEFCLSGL

[6] = molecular target: T2, Corticotropin-releasing factor receptor 2/Corticotropin-releasing factor-binding protein; assay: Dose Response confirmation of uHTS hits for small molecule antagonists of the CRF-binding protein and CRF-R2 receptor complex.; type: functional; conditions: read-out: IC50_Mean
[7] = CRF-BP/CRF-R2 complex antagonists, dose response, cell-based, uHTS hits, 384-well (AID 651639); type: functional, Homo sapiens; conditions: read-out: IC50_Mean
[8] = cytotoxicity toward NIH3T3 fibroblasts, dose response, counter-screen, cell-based, ATP luminescence, mouse fibroblasts (AID 2010); type: functional;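 further: cells exposed to compound for about 90 hours before reading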
INS1 = assay: beta cell apoptosis inhibitors, cytokine rescue, dose response, luminescence, retest (AID 449756); type: functional, cell-based; conditions: Rattus norvegicus;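 further: cell death triggered by IL-1 beta plus TNF-alpha plus IFN-gamma mixture; protective hits raise ATP signal compared with cytokine alone wells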
Streptococcus = assay: Group A Streptococcus viability loss, dose response, counter-screen for streptokinase expression inhibitor project, luminescence, BacTiterGlo (AID 1915); type: functional, organism-based;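 further: potency for reduction of bacterial viability or growth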
[9] = test system: Streptococcus sp. 'group A'; assay: growth inhibition of control SK(-) GAS strain, dose response, counter-screen for streptokinase expression inhibitor project, luminescence, kanamycin, BacTiterGlo, confirmation (AID 1900); type: functional, organism-based
[10] = inhibitors of intracellular T. cruzi replication, confirmation, NIH3T3 host cells, beta-gal luminescence (AID 2044); type: functional, cell-based;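 further: intracellular parasites grown in NIH/3T3 mouse fibroblasts as host cells; luminescent beta-galactosidase reporter signal from transgenic T. cruzi replicating inside host cells; inhibitors lower the luminescence signal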
Streptokinase A = molecular target: T3, Streptokinase A (Streptococcus pyogenes serotype M1, UniProt P10520); assay: S. pyogenes streptokinase expression inhibitors, potency, dose response, plasminogen activation absorbance, OD405 (AID 1914); type: functional, Streptococcus pyogenes M1 GAS;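 further: secreted streptokinase activity via plasminogen activation per viability signal from cell pellet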
T3 sequence (P10520 whole entry): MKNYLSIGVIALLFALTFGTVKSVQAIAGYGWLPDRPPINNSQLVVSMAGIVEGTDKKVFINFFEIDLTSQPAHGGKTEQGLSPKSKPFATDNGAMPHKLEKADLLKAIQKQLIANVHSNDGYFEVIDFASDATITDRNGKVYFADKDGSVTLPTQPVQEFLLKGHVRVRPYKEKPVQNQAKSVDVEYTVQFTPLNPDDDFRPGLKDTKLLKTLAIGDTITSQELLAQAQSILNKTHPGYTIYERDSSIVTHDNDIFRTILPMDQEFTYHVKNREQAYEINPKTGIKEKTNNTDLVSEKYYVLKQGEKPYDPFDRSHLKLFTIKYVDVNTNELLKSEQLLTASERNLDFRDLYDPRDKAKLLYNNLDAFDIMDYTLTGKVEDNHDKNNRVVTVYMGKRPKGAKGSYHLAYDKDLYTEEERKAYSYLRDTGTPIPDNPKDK

[11] = molecular target: T4, Calpain-2 catalytic subunit (Sus scrofa, UniProt P43367); assay: pig calpain II inhibitor potency, dose response, biochemical, fluorogenic peptide substrate (AID 1420); type: functional
T4 sequence (P43367 whole entry): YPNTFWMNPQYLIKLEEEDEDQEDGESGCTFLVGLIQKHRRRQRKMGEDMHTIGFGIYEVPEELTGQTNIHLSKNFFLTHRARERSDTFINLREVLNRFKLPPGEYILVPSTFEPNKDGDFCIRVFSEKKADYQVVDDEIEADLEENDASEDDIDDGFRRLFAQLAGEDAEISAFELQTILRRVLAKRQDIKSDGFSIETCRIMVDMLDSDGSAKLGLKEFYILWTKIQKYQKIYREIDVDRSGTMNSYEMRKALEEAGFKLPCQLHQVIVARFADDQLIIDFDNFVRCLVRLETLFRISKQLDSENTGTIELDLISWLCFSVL

[12] = molecular target: T5, Polyadenylate-binding protein 1 (Homo sapiens, UniProt P11940); assay: PABP1 MLLE–PAM2 binding inhibitor potency, dose response, biochemical, fluorescence polarization, FITC-PAM2 peptide (AID 602259); type: functional; conditions: read-out: IC50_Mean
[13] = molecular target: T5, Polyadenylate-binding protein 1; assay: PABP1 MLLE–PAM2 interaction inhibitors, dose response, miRNA deadenylation inhibitor project, biochemical, fluorescence polarization, Cy5-PAM2 peptide, secondary (AID 602260); type: functional; conditions: read-out: IC50_Mean
Cytochrome P450 1A2 = molecular target: T6, Cytochrome P450 1A2 (Homo sapiens, UniProt P05177);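 further: PubChem cytochrome P450 panel assay, CYP1A2 panel member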
T6 sequence (P05177 whole entry): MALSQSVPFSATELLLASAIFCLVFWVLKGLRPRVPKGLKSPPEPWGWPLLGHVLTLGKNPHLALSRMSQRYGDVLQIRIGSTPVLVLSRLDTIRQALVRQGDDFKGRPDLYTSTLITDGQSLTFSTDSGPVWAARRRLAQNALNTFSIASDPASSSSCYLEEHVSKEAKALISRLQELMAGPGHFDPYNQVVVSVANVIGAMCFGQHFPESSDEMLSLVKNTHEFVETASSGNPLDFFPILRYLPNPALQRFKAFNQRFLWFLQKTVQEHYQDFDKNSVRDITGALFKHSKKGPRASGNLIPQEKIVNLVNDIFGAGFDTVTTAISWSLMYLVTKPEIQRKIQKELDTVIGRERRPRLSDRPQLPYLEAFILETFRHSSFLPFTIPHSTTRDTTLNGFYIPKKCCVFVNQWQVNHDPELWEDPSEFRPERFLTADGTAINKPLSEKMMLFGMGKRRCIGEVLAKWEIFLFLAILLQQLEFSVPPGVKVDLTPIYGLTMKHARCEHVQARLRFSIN

Leucine aminopeptidase = molecular target: T7, Leucine aminopeptidase (Plasmodium falciparum 3D7, UniProt Q8IL11); assay: P. falciparum M17LAP inhibitors, primary screen, biochemical, fluorogenic H-Leu-NHMec substrate, 1536-well (AID 1619); type: functional
T7 sequence (Q8IL11 whole entry): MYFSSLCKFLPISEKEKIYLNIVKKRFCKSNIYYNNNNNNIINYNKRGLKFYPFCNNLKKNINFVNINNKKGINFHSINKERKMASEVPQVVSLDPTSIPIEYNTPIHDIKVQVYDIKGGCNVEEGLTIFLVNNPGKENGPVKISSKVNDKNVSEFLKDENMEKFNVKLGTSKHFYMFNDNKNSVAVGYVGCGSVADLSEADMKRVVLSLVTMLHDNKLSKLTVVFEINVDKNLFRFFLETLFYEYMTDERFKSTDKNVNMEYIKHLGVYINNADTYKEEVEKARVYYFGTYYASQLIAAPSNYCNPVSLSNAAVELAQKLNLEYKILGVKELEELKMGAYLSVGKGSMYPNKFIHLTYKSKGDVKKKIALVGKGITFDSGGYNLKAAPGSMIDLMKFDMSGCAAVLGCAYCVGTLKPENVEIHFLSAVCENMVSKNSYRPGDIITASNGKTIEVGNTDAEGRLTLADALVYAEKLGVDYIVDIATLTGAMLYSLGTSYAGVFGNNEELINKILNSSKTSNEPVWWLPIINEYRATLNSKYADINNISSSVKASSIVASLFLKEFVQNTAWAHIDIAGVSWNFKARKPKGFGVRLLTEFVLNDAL

[14] = cytotoxicity toward DRD oncogenic fibroblasts, dose response, cell-based, non-viral oncogenic, luminescence (AID 1934); type: functional; conditions: Homo sapiens
BJ [15] = assay: cytotoxicity toward BJ-TERT fibroblasts, dose response, cell-based, RAS-independent, luminescence (AID 1933); type: functional; conditions: Homo sapiens
BJ [16] = assay: cytotoxicity toward BJ-TERT-LT-ST fibroblasts, dose response, cell-based, RAS-independent, luminescence (AID 1935); type: functional; conditions: Homo sapiens;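 further: BJ fibroblasts immortalized with TERT plus LT and ST oncogenes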
BJ [17] = assay: cells; type: functional, cell-based; conditions: Homo sapiens

ATP-dependent molecular chaperone HSP82, sequence (C4YTQ8 whole entry): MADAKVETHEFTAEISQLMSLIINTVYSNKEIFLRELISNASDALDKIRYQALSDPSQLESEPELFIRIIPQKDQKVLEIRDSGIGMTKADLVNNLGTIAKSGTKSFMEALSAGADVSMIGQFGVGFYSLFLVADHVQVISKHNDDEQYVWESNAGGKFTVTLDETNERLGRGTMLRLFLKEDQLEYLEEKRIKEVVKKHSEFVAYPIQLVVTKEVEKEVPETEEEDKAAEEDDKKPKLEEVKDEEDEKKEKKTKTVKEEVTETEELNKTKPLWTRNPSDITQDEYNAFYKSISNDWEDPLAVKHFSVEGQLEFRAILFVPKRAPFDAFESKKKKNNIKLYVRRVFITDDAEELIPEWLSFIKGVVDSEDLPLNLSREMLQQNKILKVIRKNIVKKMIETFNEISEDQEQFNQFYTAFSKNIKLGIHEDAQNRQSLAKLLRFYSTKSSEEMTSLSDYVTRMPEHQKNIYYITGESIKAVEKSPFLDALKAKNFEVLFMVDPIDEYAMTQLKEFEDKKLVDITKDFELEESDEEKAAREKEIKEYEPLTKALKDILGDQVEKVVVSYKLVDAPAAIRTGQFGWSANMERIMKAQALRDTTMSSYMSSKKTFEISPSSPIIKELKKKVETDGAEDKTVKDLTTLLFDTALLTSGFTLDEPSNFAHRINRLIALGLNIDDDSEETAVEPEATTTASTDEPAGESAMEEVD
T5 sequence (P11940 whole entry): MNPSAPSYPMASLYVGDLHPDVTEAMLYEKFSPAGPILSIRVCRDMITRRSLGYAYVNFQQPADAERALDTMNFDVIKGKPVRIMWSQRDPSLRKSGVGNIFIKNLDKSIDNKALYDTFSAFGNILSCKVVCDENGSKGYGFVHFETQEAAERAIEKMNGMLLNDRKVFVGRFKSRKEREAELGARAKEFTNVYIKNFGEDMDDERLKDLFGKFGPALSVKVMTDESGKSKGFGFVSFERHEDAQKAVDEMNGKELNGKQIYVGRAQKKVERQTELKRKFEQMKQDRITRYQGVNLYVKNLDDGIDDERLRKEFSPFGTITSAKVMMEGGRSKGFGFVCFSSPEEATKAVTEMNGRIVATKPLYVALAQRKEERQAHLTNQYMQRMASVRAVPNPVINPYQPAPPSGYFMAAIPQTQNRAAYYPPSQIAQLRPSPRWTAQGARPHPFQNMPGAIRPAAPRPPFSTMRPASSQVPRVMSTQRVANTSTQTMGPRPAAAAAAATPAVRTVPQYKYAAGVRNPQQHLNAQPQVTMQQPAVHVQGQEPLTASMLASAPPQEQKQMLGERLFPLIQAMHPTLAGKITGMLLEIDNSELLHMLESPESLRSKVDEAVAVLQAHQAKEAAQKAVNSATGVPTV
Cytochrome P450 2D6, sequence (P10635 whole entry): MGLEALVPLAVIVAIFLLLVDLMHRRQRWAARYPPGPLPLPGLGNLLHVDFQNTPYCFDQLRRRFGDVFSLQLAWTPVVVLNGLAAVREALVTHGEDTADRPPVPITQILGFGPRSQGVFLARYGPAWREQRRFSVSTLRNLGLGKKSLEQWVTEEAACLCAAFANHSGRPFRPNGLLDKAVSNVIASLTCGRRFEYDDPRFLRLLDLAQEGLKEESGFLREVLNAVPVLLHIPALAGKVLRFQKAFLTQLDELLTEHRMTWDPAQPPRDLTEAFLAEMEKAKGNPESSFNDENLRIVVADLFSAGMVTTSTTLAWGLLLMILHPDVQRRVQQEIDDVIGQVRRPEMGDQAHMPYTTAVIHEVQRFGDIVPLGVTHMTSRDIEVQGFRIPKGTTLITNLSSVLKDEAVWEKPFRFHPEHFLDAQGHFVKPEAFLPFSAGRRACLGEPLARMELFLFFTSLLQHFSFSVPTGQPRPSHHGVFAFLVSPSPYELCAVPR

| Structure (SMILES) | EC50 [1] | EC50 [2] | EC50 [3] | EC50 [4] | EC50 [5] | IC50 [6] | IC50 [7] | further results |
| --- | --- | --- | --- | --- | --- | --- | --- | --- |
| C=CCn1c(N)nc2ccccc21 | 1.55 µM (active) | > 160 µM (inactive) | > 180 µM (inactive) | > 160 µM (inactive) |  |  |  |  |
| COC(=O)C(NC(=O)c1ccc(F)cc1)(Nc1ncc(S(=O)(=O)c2ccc([N+](=O)[O-])cc2)s1)C(F)(F)F (configuration not stated) |  |  |  |  | > 53 µM (inactive) | 16.3 µM (active) | 14.5 µM (active) | AC50 (Cytochrome P450 2D6): 31.6 µM (inconclusive) |
| CCC(=O)NC(c1ccc(C)cc1)c1cc([N+](=O)[O-])c2cccnc2c1O (configuration not stated) | 0.212 µM (active) | 21.8 µM (active) | > 180 µM (inactive) | > 150 µM (inactive) |  |  |  | EC50 [8]: 6.02 µM (active); AC50 (INS1): 5.53 µM (active); EC50 (Streptococcus): 12.7 µM (active); EC50 [9]: 1.17 µM (active); EC50 [10]: 1.34 µM (active); EC50 (Streptokinase A): 56.5 µM (active) |
| CC(=O)c1ccc(N2CCN(C(=O)c3cccc(Oc4ccccc4)c3)CC2)cc1 |  |  |  |  | > 53 µM (inactive) | 2.16 µM (active) | 6.67 µM (active) | IC50 [11]: 12.3 µM (not active) |
| CCCCc1c(O)n(-c2ccccc2OC)c(SCC(=O)Nc2cccc3ccccc23)nc1=O | 2.03 µM (active) | > 160 µM (inconclusive) | > 180 µM (inactive) | > 160 µM (inactive) |  |  |  | IC50 [12]: > 66 µM (inactive); IC50 [13]: > 66 µM (inactive) |
| O=C(Nc1cc(S(=O)(=O)N2CCCCC2)ccc1N1CCCCC1)C1CC1 |  |  |  |  | > 53 µM (inactive) | < 0.368 µM (active) | > 20 µM (inactive) |  |
| O=C(CCc1ccccc1)NNC(=S)NC(=O)c1ccccc1 | 1.01 µM (active) | > 150 µM (inactive) | 19.2 µM (active) | 16.4 µM (active) |  |  |  | AC50 (Cytochrome P450 1A2): 14.1 µM (inconclusive); EC50 (Streptococcus): 5.07 µM (active); EC50 [9]: 1.27 µM (active); IC50 (Leucine aminopeptidase): 41.3 µM (active) |
| COc1ccc(C(=O)/C(C#N)=N/Nc2ccccc2[N+](=O)[O-])cc1 |  |  |  |  | > 53 µM (inactive) | 4.66 µM (active) | 11 µM (active) | EC50 [14]: 2.84 µM (active); EC50 (BJ [15]): 10.7 µM (active); EC50 (BJ [16]): 21.5 µM (inconclusive); EC50 (BJ [17]): 19.4 µM (inconclusive) |
| CCCCN(c1ccc(C(=O)OC)cc1)S(=O)(=O)c1ccccc1 |  |  |  |  | > 53 µM (inactive) | < 0.368 µM (active) | > 20 µM (inactive) |  |
| CCOC(=O)Nc1ccc(Oc2ccccc2)cc1 |  |  |  |  | > 53 µM (inactive) | 15.2 µM (active) | > 20 µM (inactive) |  |
